Measurements as given in ChEMBL document CHEMBL5653615 (J Biol Chem, 2013).
Each block holds one molecule with its values, some of them ahead of it.

How the values were obtained:
[1] = molecular target: Serine/threonine-protein kinase SIK2 (Homo sapiens) (UniProt Q9H0K1); assay: Inhibition of human SIK2 at 18.6 nM by HotSpot assay relative to control
[2] = molecular target: MAP kinase-interacting serine/threonine-protein kinase 1 (Homo sapiens) (UniProt Q9BUB5); assay: Inhibition of human MNK1 at 18.6 nM by HotSpot assay relative to control
Chain of MAP kinase-interacting serine/threonine-protein kinase 1 (Homo sapiens) (Q9BUB5 whole entry, looked up): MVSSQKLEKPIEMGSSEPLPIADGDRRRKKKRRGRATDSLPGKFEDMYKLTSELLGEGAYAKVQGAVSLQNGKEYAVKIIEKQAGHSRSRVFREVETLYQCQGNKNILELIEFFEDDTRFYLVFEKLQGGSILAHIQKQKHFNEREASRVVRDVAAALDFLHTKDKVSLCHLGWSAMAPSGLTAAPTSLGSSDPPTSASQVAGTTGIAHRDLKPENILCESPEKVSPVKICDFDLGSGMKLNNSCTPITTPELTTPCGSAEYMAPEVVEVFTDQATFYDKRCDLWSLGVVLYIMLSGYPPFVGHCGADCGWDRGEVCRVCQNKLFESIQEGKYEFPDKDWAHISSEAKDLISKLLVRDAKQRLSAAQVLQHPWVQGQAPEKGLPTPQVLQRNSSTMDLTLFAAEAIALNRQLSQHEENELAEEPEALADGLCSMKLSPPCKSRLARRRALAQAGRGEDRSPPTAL

[3] = molecular target: T1, Tyrosine-protein kinase Tec (Homo sapiens) (UniProt P42680); assay: Inhibition of human TEC at 18.6 nM by HotSpot assay relative to control
T1 sequence (whole entry): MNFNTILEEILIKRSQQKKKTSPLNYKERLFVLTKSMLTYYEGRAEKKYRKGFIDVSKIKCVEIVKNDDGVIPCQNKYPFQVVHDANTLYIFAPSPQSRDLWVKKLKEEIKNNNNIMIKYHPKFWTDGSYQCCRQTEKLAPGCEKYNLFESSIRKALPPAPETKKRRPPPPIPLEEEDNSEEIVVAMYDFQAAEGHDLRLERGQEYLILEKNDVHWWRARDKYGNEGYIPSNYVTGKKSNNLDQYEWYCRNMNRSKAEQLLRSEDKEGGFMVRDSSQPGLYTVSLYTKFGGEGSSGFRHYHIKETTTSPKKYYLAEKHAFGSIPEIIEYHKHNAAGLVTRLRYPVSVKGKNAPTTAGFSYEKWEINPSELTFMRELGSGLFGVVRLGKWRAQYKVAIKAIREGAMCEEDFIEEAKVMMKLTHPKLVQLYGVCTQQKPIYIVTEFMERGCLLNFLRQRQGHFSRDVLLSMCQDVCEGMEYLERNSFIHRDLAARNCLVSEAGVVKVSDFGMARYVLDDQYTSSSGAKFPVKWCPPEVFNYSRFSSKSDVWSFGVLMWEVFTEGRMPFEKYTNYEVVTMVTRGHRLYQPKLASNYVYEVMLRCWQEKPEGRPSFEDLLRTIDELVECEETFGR

[4] = molecular target: Tyrosine-protein kinase CSK (Homo sapiens) (UniProt P41240); assay: Inhibition of human CSK at 18.6 nM by HotSpot assay relative to control
Chain of Tyrosine-protein kinase CSK (Homo sapiens) (P41240 2-450 limits assumed): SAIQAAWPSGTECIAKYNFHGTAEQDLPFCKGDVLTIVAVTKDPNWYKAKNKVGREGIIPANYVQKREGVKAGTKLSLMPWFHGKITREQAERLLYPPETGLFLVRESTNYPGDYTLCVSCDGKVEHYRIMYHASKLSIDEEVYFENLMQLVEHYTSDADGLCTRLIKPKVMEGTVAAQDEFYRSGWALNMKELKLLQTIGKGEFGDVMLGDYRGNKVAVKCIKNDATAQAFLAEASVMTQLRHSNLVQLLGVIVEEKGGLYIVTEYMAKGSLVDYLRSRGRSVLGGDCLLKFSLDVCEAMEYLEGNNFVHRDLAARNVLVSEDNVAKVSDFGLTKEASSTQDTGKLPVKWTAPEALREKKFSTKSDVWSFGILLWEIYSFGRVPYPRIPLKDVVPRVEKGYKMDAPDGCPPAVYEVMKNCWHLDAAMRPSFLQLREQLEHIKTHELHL

[5] = molecular target: Mitogen-activated protein kinase 9 (Homo sapiens) (UniProt P45984); assay: Inhibition of human JNK2 at 18.6 nM by HotSpot assay relative to control
Chain of Mitogen-activated protein kinase 9 (Homo sapiens) (P45984 whole entry, looked up): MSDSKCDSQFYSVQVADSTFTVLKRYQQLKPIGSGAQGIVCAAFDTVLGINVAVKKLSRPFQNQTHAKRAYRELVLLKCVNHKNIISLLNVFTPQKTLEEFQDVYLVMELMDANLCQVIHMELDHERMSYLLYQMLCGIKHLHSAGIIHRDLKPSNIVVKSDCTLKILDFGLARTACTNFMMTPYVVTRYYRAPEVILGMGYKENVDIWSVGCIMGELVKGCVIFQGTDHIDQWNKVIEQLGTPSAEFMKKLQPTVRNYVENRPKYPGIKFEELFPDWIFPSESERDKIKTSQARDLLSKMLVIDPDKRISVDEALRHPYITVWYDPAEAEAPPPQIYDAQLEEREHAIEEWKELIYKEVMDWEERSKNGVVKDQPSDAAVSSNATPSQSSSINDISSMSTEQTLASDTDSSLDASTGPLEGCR

[6] = species: Homo sapiens; assay: Inhibition of human TAO1 at 18.6 nM by HotSpot assay relative to control
[7] = molecular target: T2, Dual serine/threonine and tyrosine protein kinase (Homo sapiens) (UniProt Q6XUX3); assay: Inhibition of human RIPK5 at 500 nM by HotSpot assay relative to control
T2 sequence (whole entry): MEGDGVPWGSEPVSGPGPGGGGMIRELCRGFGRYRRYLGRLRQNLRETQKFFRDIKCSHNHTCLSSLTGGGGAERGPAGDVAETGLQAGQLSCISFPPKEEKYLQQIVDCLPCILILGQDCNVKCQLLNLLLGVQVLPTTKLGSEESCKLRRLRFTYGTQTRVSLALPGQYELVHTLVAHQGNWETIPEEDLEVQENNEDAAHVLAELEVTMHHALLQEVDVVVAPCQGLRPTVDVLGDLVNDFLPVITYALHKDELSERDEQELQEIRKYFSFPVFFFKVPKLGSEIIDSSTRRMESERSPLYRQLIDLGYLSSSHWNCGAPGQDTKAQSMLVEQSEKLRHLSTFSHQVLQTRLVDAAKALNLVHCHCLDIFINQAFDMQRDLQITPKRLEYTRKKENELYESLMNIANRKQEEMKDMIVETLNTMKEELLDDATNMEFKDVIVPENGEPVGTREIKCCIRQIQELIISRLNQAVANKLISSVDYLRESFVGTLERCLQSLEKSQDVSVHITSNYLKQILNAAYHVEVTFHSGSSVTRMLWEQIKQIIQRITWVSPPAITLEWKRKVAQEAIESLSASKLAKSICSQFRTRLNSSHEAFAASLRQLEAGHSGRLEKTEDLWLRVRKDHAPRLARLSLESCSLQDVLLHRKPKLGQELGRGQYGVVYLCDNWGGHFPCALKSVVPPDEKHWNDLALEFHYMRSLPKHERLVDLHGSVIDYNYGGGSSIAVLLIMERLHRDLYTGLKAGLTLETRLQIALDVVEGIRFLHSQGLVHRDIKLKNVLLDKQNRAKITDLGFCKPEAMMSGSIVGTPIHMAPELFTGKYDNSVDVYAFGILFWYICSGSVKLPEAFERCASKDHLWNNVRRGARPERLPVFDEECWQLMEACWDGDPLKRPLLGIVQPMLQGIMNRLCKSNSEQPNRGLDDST

[8] = molecular target: T3, Rhodopsin kinase GRK7 (Homo sapiens) (UniProt Q8WTQ7); assay: Inhibition of human GRK7 at 1.82 nM by HotSpot assay relative to control
T3 sequence (whole entry): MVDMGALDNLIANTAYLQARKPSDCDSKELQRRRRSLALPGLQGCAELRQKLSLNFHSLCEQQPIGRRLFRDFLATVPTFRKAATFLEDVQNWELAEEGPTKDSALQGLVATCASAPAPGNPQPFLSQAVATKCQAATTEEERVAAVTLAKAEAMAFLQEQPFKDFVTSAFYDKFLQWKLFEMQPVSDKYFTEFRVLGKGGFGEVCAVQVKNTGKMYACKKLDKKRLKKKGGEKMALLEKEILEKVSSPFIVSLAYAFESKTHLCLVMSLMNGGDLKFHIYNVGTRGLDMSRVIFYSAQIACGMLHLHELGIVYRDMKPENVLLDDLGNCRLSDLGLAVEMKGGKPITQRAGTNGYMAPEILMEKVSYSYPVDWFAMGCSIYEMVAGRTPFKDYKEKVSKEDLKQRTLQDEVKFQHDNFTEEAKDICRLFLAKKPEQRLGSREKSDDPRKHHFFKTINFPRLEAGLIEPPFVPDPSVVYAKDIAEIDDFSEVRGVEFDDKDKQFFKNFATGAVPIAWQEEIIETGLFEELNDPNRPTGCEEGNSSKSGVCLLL

[9] = molecular target: Casein kinase I isoform gamma-2 (Homo sapiens) (UniProt P78368); assay: Inhibition of human CK1g2 at 1.82 nM by HotSpot assay relative to control
Chain of Casein kinase I isoform gamma-2 (Homo sapiens) (P78368 whole entry, looked up, canonical isoform): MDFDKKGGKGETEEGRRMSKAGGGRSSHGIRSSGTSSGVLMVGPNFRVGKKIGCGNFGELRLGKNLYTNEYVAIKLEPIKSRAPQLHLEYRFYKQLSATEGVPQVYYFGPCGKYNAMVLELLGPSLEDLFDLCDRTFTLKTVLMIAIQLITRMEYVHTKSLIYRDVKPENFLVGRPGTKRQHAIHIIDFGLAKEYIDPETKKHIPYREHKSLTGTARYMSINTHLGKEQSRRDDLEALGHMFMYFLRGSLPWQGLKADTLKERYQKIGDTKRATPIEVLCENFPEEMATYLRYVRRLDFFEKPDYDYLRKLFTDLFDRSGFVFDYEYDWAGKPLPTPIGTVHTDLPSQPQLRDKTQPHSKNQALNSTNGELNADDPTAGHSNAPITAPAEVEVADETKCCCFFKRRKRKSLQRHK

Chain of Serine/threonine-protein kinase SIK2 (Homo sapiens) (Q9H0K1 whole entry, looked up): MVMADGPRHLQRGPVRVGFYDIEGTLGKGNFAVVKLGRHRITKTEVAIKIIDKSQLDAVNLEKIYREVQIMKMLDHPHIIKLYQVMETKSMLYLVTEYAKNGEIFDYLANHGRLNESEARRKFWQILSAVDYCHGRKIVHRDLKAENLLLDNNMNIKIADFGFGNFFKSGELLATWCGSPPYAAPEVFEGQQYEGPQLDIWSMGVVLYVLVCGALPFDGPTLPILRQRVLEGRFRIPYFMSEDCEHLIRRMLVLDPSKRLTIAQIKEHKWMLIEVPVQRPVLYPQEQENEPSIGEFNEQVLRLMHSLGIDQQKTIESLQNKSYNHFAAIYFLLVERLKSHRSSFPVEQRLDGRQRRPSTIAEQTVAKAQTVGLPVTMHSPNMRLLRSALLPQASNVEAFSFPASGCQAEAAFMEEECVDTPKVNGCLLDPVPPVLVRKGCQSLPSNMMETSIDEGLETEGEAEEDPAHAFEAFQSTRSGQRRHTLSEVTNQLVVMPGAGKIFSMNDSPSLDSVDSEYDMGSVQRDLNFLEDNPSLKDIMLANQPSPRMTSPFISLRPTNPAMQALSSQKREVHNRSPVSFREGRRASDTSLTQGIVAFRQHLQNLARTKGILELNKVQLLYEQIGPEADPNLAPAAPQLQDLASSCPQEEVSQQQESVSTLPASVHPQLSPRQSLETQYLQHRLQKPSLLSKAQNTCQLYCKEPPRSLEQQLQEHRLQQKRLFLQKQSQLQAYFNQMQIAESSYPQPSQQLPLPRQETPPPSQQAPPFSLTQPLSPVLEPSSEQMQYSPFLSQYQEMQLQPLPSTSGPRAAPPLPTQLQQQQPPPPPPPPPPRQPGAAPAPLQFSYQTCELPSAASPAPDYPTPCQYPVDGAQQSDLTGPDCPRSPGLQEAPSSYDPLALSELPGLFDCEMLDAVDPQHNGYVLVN

inhibition [1]: -8.94%
inhibition [2]: 0.3%
inhibition [3]: 2.21%
inhibition [4]: 3.89%
inhibition [5]: -2.37%
inhibition [6]: 1.8%
Compound: C[C@]1(O)C[C@@H](c2nc(-c3ccc4ccc(-c5ccccc5)nc4c3)c3c(N)nccn32)C1

Compound: Nc1n[nH]c2nnc(-c3c(-c4ccccc4)nn4ccccc34)cc12
inhibition [7]: 4.06%

inhibition [8]: 4.43%
inhibition [9]: -3.24%
Compound: C[C@@]1(C(=O)Nc2ccc(F)nc2)CCCN1c1nc(Nc2cc(C3CC3)n[nH]2)c2cccn2n1
